Test results reported in ChEMBL document CHEMBL1201862, “PubChem BioAssay data set” (2004).
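A five-concentration, 48-hour dose response in 96-well plates underlies each endpoint, interpolated linearly between surrounding concentrations. GI50 is the concentration that inhibits growth by half.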 Activity calls are given as the source filed them. Rule as the data show it: active = GI50 up to about 1.1 µM and inactive = higher. *1 amine or outer side, *2 acyl side, *3 side chain or, on linkers, in order; H or OH if unused. Where a SMILES comes first, the peptide text is derived from it. [ ]: non-standard residue; d: D form. The star is where a group is joined. ξ: configuration not given here. X43 = CCC(=O)CC(O)CC(C)CC(N[*:1])C(=O)[*:2]; ξLeu(3ξ-OH) = CC(C)C(O)C(N)C(=O)O; ξPro(4ξ-Me) = CC1CNC(C(=O)O)C1; X42 = CCC(C)/C=C/C(=O)*; Aib = CC(C)(N)C(=O)O; X44 = CC(CN(C)C)N*; βAla = NCCC(=O)O

Legend:
Test in all cases: NCI-60 cell line screen, 48 h
IGROV-1 = test system: IGROV-1
Malme-3M = test system: Malme-3M
SR = test system: SR
EKVX = test system: EKVX
MDA-N = test system: MDA-N
KM12 = test system: KM12
NCI-H460 = test system: NCI-H460
OVCAR-8 = test system: OVCAR-8
UACC-257 = test system: UACC-257
UO-31 = test system: UO-31
DU-145 = test system: DU-145
SF-539 = test system: SF-539
NCI/ADR-RES = test system: NCI/ADR-RES
MOLT-4 = test system: MOLT-4
SF-295 = test system: SF-295
SN12C = test system: SN12C
SNB-19 = test system: SNB-19
HCT-15 = test system: HCT-15
LOX IMVI = test system: LOX IMVI
M19-MEL = test system: M19-MEL

| Structure (SMILES) | GI50 (IGROV-1) | GI50 (Malme-3M) | GI50 (SR) | GI50 (EKVX) | GI50 (MDA-N) | GI50 (KM12) | GI50 (NCI-H460) | GI50 (OVCAR-8) | GI50 (UACC-257) | GI50 (UO-31) | GI50 (DU-145) | GI50 (SF-539) | GI50 (NCI/ADR-RES) | GI50 (MOLT-4) | GI50 (SF-295) | GI50 (SN12C) | GI50 (SNB-19) | GI50 (HCT-15) [µM] | GI50 (LOX IMVI) | GI50 (M19-MEL) |
| --- | --- | --- | --- | --- | --- | --- | --- | --- | --- | --- | --- | --- | --- | --- | --- | --- | --- | --- | --- | --- |
| COc1ccc(O)c(/C=N/NC(=S)N2CCCCC2)c1 | 2.78 µM (inactive) | 1.71 µM (inactive) | 0.425 µM (active) | 4.38 µM (inactive) | 7.8 µM (inactive) | 4.38 µM (inactive) | 1.22 µM (inactive) | 1.86 µM (inactive) | 6.04 µM (inactive) | 0.746 µM (active) | 1.74 µM (inactive) | 3.77 µM (inactive) | 1.77 µM (inactive) | 1.3 µM (inactive) | 3.33 µM (inactive) | 4.92 µM (inactive) | 4.51 µM (inactive) | 0.611 | 0.767 µM (active) |  |
| CC12NC(=C(C#N)C#N)C(C#N)=C3NC(N)=C(C#N)C(=C31)Oc1ccccc12 (centres undefined) | 4.01 µM (inactive) | 20.6 µM (inactive) | 2.59 µM (inactive) | > 66.5 µM (inactive) | 14.6 µM (inactive) | 3.77 µM (inactive) | 31 µM (inactive) | 10.9 µM (inactive) | > 100 µM (inactive) | > 100 µM (inactive) | 10.1 µM (inactive) | 4.32 µM (inactive) | > 100 µM (inactive) | 15.2 µM (inactive) | 20 µM (inactive) | > 30.7 µM (inactive) | > 40.7 µM (inactive) | 28.8 | 5.83 µM (inactive) |  |
| COC(=O)C1=C(OC(=O)/C=C/c2ccc(Cl)cc2)C(C(=O)OC)[C@]2(O)[C@@H](C(=O)OC)[C@H]1C[C@@H](c1ccccc1)[C@@H]2C(=O)OC (some centres undefined) | 3.18 µM (inactive) | 4.94 µM (inactive) | 4.5 µM (inactive) | 3.85 µM (inactive) | 3.58 µM (inactive) | 4.89 µM (inactive) | 4.15 µM (inactive) | 3.95 µM (inactive) | 26.2 µM (inactive) | 7.08 µM (inactive) | 7.31 µM (inactive) | 4.68 µM (inactive) | 3.52 µM (inactive) | 3.76 µM (inactive) | 9.23 µM (inactive) | 7.36 µM (inactive) | 6.65 µM (inactive) | 3.66 | 7.19 µM (inactive) |  |
| CC(C)OP(=O)(OC(C)C)C(C(C)C)N(C)/C(N)=N/C#N (centres undefined) | > 100 µM (inactive) | > 100 µM (inactive) | > 100 µM (inactive) | > 100 µM (inactive) | > 100 µM (inactive) | > 100 µM (inactive) | > 100 µM (inactive) | > 100 µM (inactive) | > 100 µM (inactive) | > 100 µM (inactive) | > 100 µM (inactive) | > 100 µM (inactive) | > 100 µM (inactive) | > 100 µM (inactive) | > 100 µM (inactive) | > 100 µM (inactive) | > 100 µM (inactive) | > 100 | > 100 µM (inactive) |  |
| COC1=C(OC)C(=O)C(Cc2c(-c3ccccc3)nc3sc(Cl)cn23)=C(C)C1=O | 14.9 µM (inactive) | 16.5 µM (inactive) | 22.9 µM (inactive) | 20.7 µM (inactive) | 16.3 µM (inactive) | 17 µM (inactive) | 16 µM (inactive) | 15.2 µM (inactive) | 16 µM (inactive) | 15.8 µM (inactive) | 20 µM (inactive) | 17.1 µM (inactive) | 17.9 µM (inactive) | 1.96 µM (inactive) | 17 µM (inactive) | 16.4 µM (inactive) | 18.2 µM (inactive) | 14.5 | 23.7 µM (inactive) |  |
| C=C1c2nc3ccccc3n2C=C(c2ccc(OC)cc2)N1c1ccc(OCCN2CCOCC2)cc1 | > 100 µM (inactive) | 6.52 µM (inactive) | 4.41 µM (inactive) | > 100 µM (inactive) | > 75.2 µM (inactive) | 15.8 µM (inactive) | 3.72 µM (inactive) | 6.03 µM (inactive) | 7.13 µM (inactive) | 24.7 µM (inactive) | > 54.8 µM (inactive) | > 100 µM (inactive) | 5.21 µM (inactive) | 3.75 µM (inactive) | 41.7 µM (inactive) | > 61.8 µM (inactive) | > 100 µM (inactive) | 6.15 | 13.3 µM (inactive) |  |
| O=C1N(C2CCCCC2)C(=O)N1C1CCCCC1 | 17.5 µM (inactive) | 1.99 µM (inactive) | 0.232 µM (active) | 8.61 µM (inactive) | 3.97 µM (inactive) | 0.285 µM (active) | 0.321 µM (active) | 0.0929 µM (active) | 0.679 µM (active) | < 0.0105 µM (active) | 0.126 µM (active) | 1.22 µM (inactive) | 0.133 µM (active) | 0.0132 µM (active) | 0.29 µM (active) | 0.272 µM (active) | 1.46 µM (inactive) | 0.257 | 0.209 µM (active) |  |
| SC1=C2CCCCCC2=NC2(CCCCCC2)S1 | 44.1 µM (inactive) | 22 µM (inactive) | 15.6 µM (inactive) | 5.62 µM (inactive) | 33.4 µM (inactive) | 18.4 µM (inactive) | 17.3 µM (inactive) | 28.3 µM (inactive) | 11 µM (inactive) | 11.6 µM (inactive) | 30.8 µM (inactive) | 35.1 µM (inactive) | 26.5 µM (inactive) | 19 µM (inactive) | 23.6 µM (inactive) | 37.3 µM (inactive) | 25.8 µM (inactive) | 37.1 | 29.4 µM (inactive) |  |
| COc1ccc(CC2NCCc3c2[nH]c2ccccc32)cc1 (centres undefined) | 83 µM (inactive) |  |  | > 100 µM (inactive) |  | 58.1 µM (inactive) | 35.6 µM (inactive) | > 100 µM (inactive) |  | 41.5 µM (inactive) |  | 42.1 µM (inactive) |  | 31.9 µM (inactive) | 96.6 µM (inactive) | 40.9 µM (inactive) | > 100 µM (inactive) | 52.4 | 42 µM (inactive) | 71.4 µM (inactive) |
| CCC(=O)CC(O)CC(C)CC(NC(=O)C1CC(C)CN1C(=O)/C=C/C(C)CC)C(=O)NC(C(=O)NC(C)(C)C(=O)NC(CC(C)C)C(=O)NC(CC(C)C)C(=O)NC(C)(C)C(=O)NC(C)(C)C(=O)NCCC(=O)NC(C)CN(C)C)C(O)C(C)C (centres undefined) (X42-[ξPro(4ξ-Me)][X43][ξLeu(3ξ-OH)][Aib]LL[Aib][Aib][βAla]-X44; configuration not given here) | 0.0746 µM (active) | 0.133 µM (active) | 0.028 µM (active) | < 0.005 µM (active) | 0.0818 µM (active) | 0.0412 µM (active) | 0.0374 µM (active) | < 0.005 µM (active) | < 0.005 µM (active) | 5.87 µM (inactive) | 0.351 µM (active) | 0.292 µM (active) | 7.08 µM (inactive) | 0.00887 µM (active) | 0.0255 µM (active) | 0.261 µM (active) | 0.0115 µM (active) | 5.4 | 0.199 µM (active) |  |
| CN(CC(N)=O)C(=O)N(CCCl)N=O [SARCNU] | > 100 µM (inactive) | > 100 µM (inactive) | > 71.1 µM (inactive) | > 100 µM (inactive) | > 100 µM (inactive) | > 100 µM (inactive) | 41.1 µM (inactive) | > 100 µM (inactive) | > 100 µM (inactive) | > 100 µM (inactive) | > 100 µM (inactive) | 38.3 µM (inactive) | > 100 µM (inactive) | > 100 µM (inactive) | > 76.7 µM (inactive) | > 100 µM (inactive) | > 83.9 µM (inactive) | > 100 | > 100 µM (inactive) |  |
